Values after ≈ are worked out from the molar mass of the structure shown. Where two headings read alike, the source gives them in different places.
Legend:
CDK4 = CDK4 (Homo sapiens, UniProt P11802); assay: biochemical
AKT3 [1] = target: T1, AKT3 (Homo sapiens, UniProt Q9Y243); assay: biochemical
Target sequence in this assay (Q9Y243 whole entry, species assumed): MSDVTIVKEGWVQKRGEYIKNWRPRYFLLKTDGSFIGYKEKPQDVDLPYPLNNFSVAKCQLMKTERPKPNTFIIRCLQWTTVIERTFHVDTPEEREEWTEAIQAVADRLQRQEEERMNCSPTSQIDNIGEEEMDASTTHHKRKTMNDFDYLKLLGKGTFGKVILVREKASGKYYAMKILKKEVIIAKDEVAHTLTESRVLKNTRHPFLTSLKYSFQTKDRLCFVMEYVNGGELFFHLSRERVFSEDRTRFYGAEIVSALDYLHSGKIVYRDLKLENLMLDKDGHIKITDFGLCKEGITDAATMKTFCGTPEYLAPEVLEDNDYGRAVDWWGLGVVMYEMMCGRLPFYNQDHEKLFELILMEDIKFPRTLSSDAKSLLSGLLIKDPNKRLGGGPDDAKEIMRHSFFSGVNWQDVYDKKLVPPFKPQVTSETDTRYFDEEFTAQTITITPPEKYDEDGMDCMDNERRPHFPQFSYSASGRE

A2780 cells = assay: Cytotox survival of A2780 cells after 3 days; format: cell-based; conditions: for IC50: Homo sapiens, A2780, 72 h
Procedure: In an alternative assay, the growth inhibitory effect of the compounds was tested on the ovarian carcinoma cell line A2780 using art known cytotoxicity assays such as LIVE/DEAD (Molecular Probes) MTT.

physchem = conditions: pH 7.4, aqueous buffer, kinetic from dmso stock
AKT3 [2] = target: T1, AKT3; assay: cell-based
Target sequence in this assay (Q9Y243 whole entry): as the sequence (Q9Y243 whole entry, species assumed) above

CDC25B = target: T2, CDC25B (Homo sapiens, UniProt P30305); assay: biochemical
T2 sequence (P30305 1-580): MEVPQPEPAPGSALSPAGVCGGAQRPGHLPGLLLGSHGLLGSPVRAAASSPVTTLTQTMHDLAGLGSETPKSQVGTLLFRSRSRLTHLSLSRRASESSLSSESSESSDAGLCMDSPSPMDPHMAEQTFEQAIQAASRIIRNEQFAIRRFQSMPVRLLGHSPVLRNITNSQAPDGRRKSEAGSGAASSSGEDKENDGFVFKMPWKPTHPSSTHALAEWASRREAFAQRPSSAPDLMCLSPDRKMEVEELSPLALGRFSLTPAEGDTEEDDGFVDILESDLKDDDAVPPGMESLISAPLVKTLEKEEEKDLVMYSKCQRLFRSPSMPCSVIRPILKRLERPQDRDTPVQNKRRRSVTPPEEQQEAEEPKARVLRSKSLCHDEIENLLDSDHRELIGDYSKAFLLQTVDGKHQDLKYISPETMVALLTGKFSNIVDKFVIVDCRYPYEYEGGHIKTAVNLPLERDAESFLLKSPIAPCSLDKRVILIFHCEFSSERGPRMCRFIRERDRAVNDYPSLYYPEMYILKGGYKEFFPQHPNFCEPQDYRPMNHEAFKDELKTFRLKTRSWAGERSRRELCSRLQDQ

[3] = CDK4 SPA (Ex. C.1): pIC50 values
[4] = AKT3 pep. (Ex. C.3): pIC50 values
[5] = A2780 cells, 3 days, read-out: Cytotox survival of A2780 cells after 3 days - pIC50 values (converted)
[6] = read-out: CDK4 SPA (Ex. C.1): pIC50 values (converted)
[7] = read-out: AKT3 pep. (Ex. C.3): pIC50 values (converted)
[8] = read-out: AKT cel (Ex. C.6): pIC50 values (converted)
[9] = read-out: CDC25B WT (Ex. C.5): pIC50 values (converted)
[10] = read-out: Cytotox survival of A2780 cells after 3 days - pIC50 values, A2780 cells, 3 days (converted)
[11] = AKT cel (Ex. C.6): pIC50 values, MDA-MB 231 cells, phosphorylated MAPK read-out
[12] = CDC25B WT (Ex. C.5): pIC50 values

Sequence of CDK4 (P11802 whole entry, species assumed): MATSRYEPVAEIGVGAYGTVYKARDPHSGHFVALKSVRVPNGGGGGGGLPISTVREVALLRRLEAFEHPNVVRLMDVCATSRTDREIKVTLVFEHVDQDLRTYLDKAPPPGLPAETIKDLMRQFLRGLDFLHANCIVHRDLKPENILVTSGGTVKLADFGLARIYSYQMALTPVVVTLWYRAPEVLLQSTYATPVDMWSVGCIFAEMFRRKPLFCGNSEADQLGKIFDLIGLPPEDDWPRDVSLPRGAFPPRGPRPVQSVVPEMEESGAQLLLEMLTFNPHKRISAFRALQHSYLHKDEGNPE
Sequence of CDK4 (P24385 whole entry partner, species assumed): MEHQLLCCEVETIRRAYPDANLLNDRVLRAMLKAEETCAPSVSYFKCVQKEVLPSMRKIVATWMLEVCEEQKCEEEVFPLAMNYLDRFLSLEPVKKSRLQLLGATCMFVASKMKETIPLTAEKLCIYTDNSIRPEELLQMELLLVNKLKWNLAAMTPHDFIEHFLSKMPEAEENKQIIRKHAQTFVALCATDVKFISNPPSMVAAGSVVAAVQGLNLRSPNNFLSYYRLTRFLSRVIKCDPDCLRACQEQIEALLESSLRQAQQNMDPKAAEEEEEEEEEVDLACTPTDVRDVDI

Structure (SMILES)	IC50 (CDK4; [3]) [nM]	IC50 (AKT3 [1]; [4]) [nM]	IC50 (A2780 cells; [5]) [nM]	solubility (physchem) [µM]	IC50 (CDK4; [6]) [nM]	IC50 (AKT3 [1]; [7]) [nM]	IC50 (AKT3 [2]; [8]) [nM]	Cytotox survival of A2780 cells after 3 days - pIC50 values (A2780 cells; A2780 cells, 3 days)	IC50 (CDC25B; [9]) [nM]	IC50 (A2780 cells; [10]) [nM]	IC50 (AKT3 [2]; [11]) [nM]	IC50 (CDC25B; [12]) [nM]
CC(C)n1nc(-c2ccc(OCCN3CCOCC3)c(Cl)c2)nc2c(=O)n(C)c(=O)nc1-2 [Compound 74]	161	111	190	160 to 1800 (≈ 73.7 to 830 µg/mL)	–	–	–	–	–	–	–	–
COc1cc(-c2nc3c(=O)n(C)c(=O)nc-3n(C(C)C)n2)cc(OC)c1OCCN1CCCCC1 [Compound 77]	–	–	–	–	293	240	> 1000	6.785	43.3	–	–	–
COc1cc(-c2nc3c(=O)n(C)c(=O)nc-3n(C(C)C)n2)ccc1OCCN1CCCCC1 [Compound 78]	–	–	–	> 1800	513	262	301	–	44	269	–	–
CC(C)n1nc(-c2ccc(OCCN3CCN(S(=O)(=O)N(C)C)CC3)cc2)nc2c(=O)n(C)c(=O)nc1-2 [Compound 79]	–	–	–	160 to 1800 (≈ 85.2 to 959 µg/mL)	404	282	≥ 3000	–	26.2	513	–	–
CC(C)n1nc(-c2ccc(OCCN3CCN(C(=O)OC(C)(C)C)CC3)cc2)nc2c(=O)n(C)c(=O)nc1-2 [Compound 80]	–	–	–	160 to 1800 (≈ 84.1 to 946 µg/mL)	372	395	> 300	–	32.4	390	–	–
CC(C)n1nc(-c2ccc(OCCCN3CCCCC3)cc2)nc2c(=O)n(C)c(=O)nc1-2 [Compound 81]	–	–	–	> 1800	194	252	> 1000	–	38.9	132	–	–
CC(C)n1nc(-c2ccc(OCCN3CCNCC3)cc2)nc2c(=O)n(C)c(=O)nc1-2 [Compound 82]	–	–	–	> 1800	300	339	216	–	50.2	375	–	–
CC(C)n1nc(-c2ccc(OCCCN3CCOCC3)cc2)nc2c(=O)n(C)c(=O)nc1-2 [Compound 84]	586	280	216	> 1800	–	–	–	–	–	–	> 1000	38.3
COc1cc(-c2nc3c(=O)n(C)c(=O)nc-3n(C(C)C)n2)cc(OC)c1OCCN1CCN(C)CC1 [Compound 85]	–	–	–	> 1800	322	345	> 1000	–	48.4	228	–	–
COc1cc(-c2nc3c(=O)n(C)c(=O)nc-3n(C(C)C)n2)cc(OC)c1OS(=O)(=O)N(C)C [Compound 86]	–	–	–	160 to 1800 (≈ 76.9 to 865 µg/mL)	272	273	> 1000	–	38.6	264	–	–
CC(C)n1nc(-c2ccc(OS(=O)(=O)N(C)C)cc2)nc2c(=O)n(C)c(=O)nc1-2 [Compound 87]	274	410	–	160 to 1800 (≈ 67.3 to 757 µg/mL)	–	–	–	–	–	198	> 1000	48.3
CC(C)n1nc(-c2ccc(OCCN3CCCCC3)c(Cl)c2)nc2c(=O)n(C)c(=O)nc1-2 [Compound 88]	–	–	–	160 to 1800 (≈ 73.4 to 826 µg/mL)	267	239	> 1000	–	25.8	168	–	–
COc1cc(-c2nc3c(=O)n(C)c(=O)nc-3n(C(C)C)n2)cc(OC)c1OCCN1CCN(C(=O)OC(C)(C)C)CC1 [Compound 89]	–	–	–	> 1800	506	352	> 1000	–	35.5	527	–	–
CC(C)n1nc(-c2ccc(OCCCN3CCCCC3)cc2)nc2c(=O)n(C)c(=O)nc1-2 [Compound 90]	–	–	–	–	–	181	–	6.842	27.9	–	–	–
CC(C)n1nc(-c2ccc(CNCCc3cccnc3)cc2)nc2c(=O)n(C)c(=O)nc1-2 [Compound 93]	193	279	272	> 1800	–	–	–	–	–	–	> 1000	49.1
CC(C)n1nc(-c2ccc(OCCN3CCCCC3)cc2)nc2c(=O)n(C)c(=O)nc1-2 [Compound 94]	–	–	–	> 1800	173	165	–	–	36.4	163	–	–
CC(C)n1nc(-c2ccc(OCCN(C)S(=O)(=O)N(C)C)cc2)nc2c(=O)n(C)c(=O)nc1-2 [Compound 95]	–	–	–	160 to 1800 (≈ 76.4 to 860 µg/mL)	321	190	> 3000	–	41.4	481	–	–
COc1cc(-c2nc3c(=O)n(C)c(=O)nc-3n(C(C)C)n2)cc(OC)c1OCCN1CCN(S(N)(=O)=O)CC1 [Compound 96]	–	–	–	> 1800	205	175	> 3000	–	45	492	–	–
CC(C)n1nc(-c2ccc(OCCN3CCN(C)CC3)cc2)nc2c(=O)n(C)c(=O)nc1-2 [Compound 97]	–	–	–	> 1800	164	198	> 3000	–	42.7	292	–	–
CC(C)n1nc(-c2ccc(CNC3CCNCC3)cc2)nc2c(=O)n(C)c(=O)nc1-2 [Compound 98]	–	–	–	> 1800	200	194	> 3000	–	58.5	488	–	–
CC(C)n1nc(-c2ccc(CNC3CCN(S(=O)(=O)N(C)C)CC3)cc2)nc2c(=O)n(C)c(=O)nc1-2 [Compound 99]	–	–	–	> 1800	141	170	432	–	30.3	120	–	–
COCCNCc1ccc(-c2nc3c(=O)n(C)c(=O)nc-3n(C(C)C)n2)cc1 [Compound 100]	157	178	246	> 1800	–	–	–	–	–	–	407	49.9
CC(C)n1nc(-c2ccc(OCCN)cc2)nc2c(=O)n(C)c(=O)nc1-2 [Compound 101]	230	232	579	> 1800	–	–	–	–	–	–	513	53.5
CC(C)n1nc(-c2ccc(CN3CCN(S(N)(=O)=O)CC3)cc2)nc2c(=O)n(C)c(=O)nc1-2 [Compound 102]	79.8	172	912	> 1800	–	–	–	–	–	–	> 3020	36.5
CC(C)n1nc(-c2ccc(CN3CCN(S(=O)(=O)N(C)C)CC3)cc2)nc2c(=O)n(C)c(=O)nc1-2 [Compound 103]	–	–	–	160 to 1800 (≈ 80.4 to 905 µg/mL)	357	129	> 3020	–	22.6	425	–	–
CC(C)n1nc(-c2ccc(OCCNS(=O)(=O)N(C)C)cc2)nc2c(=O)n(C)c(=O)nc1-2 [Compound 109]	–	–	–	160 to 1800 (≈ 74.2 to 834 µg/mL)	166	155	> 3020	–	–	594	–	–
COc1cc(-c2nc3c(=O)n(C)c(=O)nc-3n(C3CCNCC3)n2)ccc1OCCN1CCCCC1 [Compound 152]	–	–	–	–	187	275	≥ 3000	–	25.4	630	–	–
Cn1c(=O)nc2n(C3CCNCC3)nc(-c3ccc(CCCN4CCCCC4)cc3)nc-2c1=O [Compound 155]	72.6	232	–	–	–	–	–	–	–	177	469	36.9
